Test results taken from ChEMBL document CHEMBL1201862, “PubChem BioAssay data set” (2004).
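Compound exposure: 48 hours, 5 concentrations, 96-well plates. GI50 is the concentration that inhibits growth by half.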 Active and inactive are the calls of the source. Rule as the data show it: active = GI50 up to about 1.1 µM and inactive = higher.

Columns and labels:
Experiment in all cases: DTP human tumour cell line panel, 48 h
U-251 = system: U-251
EKVX = system: EKVX
SK-MEL-28 = system: SK-MEL-28
MDA-MB-231 = system: MDA-MB-231
SR = system: SR
TK-10 = system: TK-10
M14 = system: M14
A498 = system: A498
RXF 393 = system: RXF 393
COLO 205 = system: COLO 205
RPMI-8226 = system: RPMI-8226
CCRF-CEM = system: CCRF-CEM
MDA-MB-435 = system: MDA-MB-435
SF-268 = system: SF-268
SN12C = system: SN12C
NCI-H226 = system: NCI-H226
LOX IMVI = system: LOX IMVI
OVCAR-5 = system: OVCAR-5
SF-295 = system: SF-295
MCF7 = system: MCF7

Row | SMILES | GI50 (U-251) | GI50 (EKVX) | GI50 (SK-MEL-28) | GI50 (MDA-MB-231) | GI50 (SR) | GI50 (TK-10) | GI50 (M14) | GI50 (A498) | GI50 (RXF 393) | GI50 (COLO 205) | GI50 (RPMI-8226) | GI50 (CCRF-CEM) | GI50 (MDA-MB-435) | GI50 (SF-268) | GI50 (SN12C) | GI50 (NCI-H226) | GI50 (LOX IMVI) | GI50 (OVCAR-5) | GI50 (SF-295) | GI50 (MCF7)
1 | CCCC(=O)NC1=C(Cl)C(=O)c2ccccc2C1=O | 3.78 µM (inactive) | 3.72 µM (inactive) | 4.33 µM (inactive) | 3.94 µM (inactive) | 1.83 µM (inactive) | 4.89 µM (inactive) | 3.13 µM (inactive) | 13.3 µM (inactive) | 1.15 µM (inactive) | 1.89 µM (inactive) | 1.48 µM (inactive) | 1.32 µM (inactive) | 3.42 µM (inactive) | 6.92 µM (inactive) | 10.8 µM (inactive) | 7.78 µM (inactive) | 2.51 µM (inactive) | 4.59 µM (inactive) | 4.99 µM (inactive) | 2.39 µM (inactive)
2 | COc1cc2c(c3oc4c(O)cccc4c(=O)c13)CC(C(C)(O)CCl)O2 (stereo not given) | 1.98 µM (inactive) | 5.52 µM (inactive) | 0.968 µM (active) | 1.55 µM (inactive) | < 0.0338 µM (active) | 12.1 µM (inactive) | 0.256 µM (active) | 15.1 µM (inactive) | 0.834 µM (active) | 0.373 µM (active) | 0.0661 µM (active) | 0.0277 µM (active) | 0.13 µM (active) | 0.0728 µM (active) | 0.209 µM (active) | 5.81 µM (inactive) | < 0.01 µM (active) | 6.34 µM (inactive) | 1.92 µM (inactive) | 0.0254 µM (active)
3 | N=C/N=C/C(=S)O[C@@H]1C(=O)N2CCC[C@@]23CCCC[C@@H]13 | > 12.5 µM (inactive) | > 12.5 µM (inactive) | > 12.5 µM (inactive) | > 12.5 µM (inactive) | > 12.5 µM (inactive) | > 12.5 µM (inactive) | > 12.5 µM (inactive) | > 12.5 µM (inactive) | > 12.5 µM (inactive) | > 12.5 µM (inactive) | > 12.5 µM (inactive) | > 12.5 µM (inactive) | > 12.5 µM (inactive) | > 12.5 µM (inactive) | > 12.5 µM (inactive) | > 12.5 µM (inactive) | > 12.5 µM (inactive) | > 12.5 µM (inactive) | > 12.5 µM (inactive) | > 12.5 µM (inactive)
4 | Nc1ccc(C(=O)N2CCC[C@H]2CO)c(N)c1 | > 100 µM (inactive) | > 100 µM (inactive) | > 100 µM (inactive) | > 100 µM (inactive) | > 100 µM (inactive) | > 100 µM (inactive) | > 100 µM (inactive) | > 100 µM (inactive) | > 100 µM (inactive) | > 100 µM (inactive) | > 100 µM (inactive) | > 100 µM (inactive) | > 100 µM (inactive) | > 100 µM (inactive) | > 100 µM (inactive) | > 100 µM (inactive) | > 100 µM (inactive) | > 100 µM (inactive) | > 100 µM (inactive) | > 100 µM (inactive)
5 | CCOC(=O)/C(C#N)=C1\c2c([nH]c(=S)[nH]c2=O)Oc2ccc3ccccc3c21 | 23.7 µM (inactive) | 22.6 µM (inactive) | 1.46 µM (inactive) | 24.8 µM (inactive) | 49.1 µM (inactive) | 39.9 µM (inactive) | 43.8 µM (inactive) | 36.6 µM (inactive) | 36.2 µM (inactive) | 19.5 µM (inactive) | 33 µM (inactive) | 1.55 µM (inactive) | 43.2 µM (inactive) | 24.3 µM (inactive) | 41.1 µM (inactive) | 18 µM (inactive) | > 100 µM (inactive) | > 100 µM (inactive) | > 100 µM (inactive) | 30.1 µM (inactive)
6 | C[C@@H]1OCC(O)C([C@H]2OC(c3ccccc3)=N[C@H]2CO)O1 (stereo not given in full) | > 100 µM (inactive) | > 100 µM (inactive) | > 100 µM (inactive) | > 100 µM (inactive) | > 100 µM (inactive) | > 100 µM (inactive) | > 100 µM (inactive) | > 100 µM (inactive) | > 100 µM (inactive) | > 100 µM (inactive) | > 100 µM (inactive) | > 100 µM (inactive) | > 100 µM (inactive) | > 100 µM (inactive) | > 100 µM (inactive) | > 100 µM (inactive) | > 100 µM (inactive) | > 100 µM (inactive) | > 100 µM (inactive) | > 100 µM (inactive)
7 | C=C(C)C1CCC2(C)C1CCC1(C)C2CCC2C3(C)C4OC(OC4=O)C(C)(C)C3CCC21C (stereo not given) | > 100 µM (inactive) | > 100 µM (inactive) | > 100 µM (inactive) | > 100 µM (inactive) | > 100 µM (inactive) | > 100 µM (inactive) | > 100 µM (inactive) | > 100 µM (inactive) | > 100 µM (inactive) | 48.3 µM (inactive) | > 100 µM (inactive) | 80.4 µM (inactive) | > 100 µM (inactive) | > 100 µM (inactive) | > 100 µM (inactive) | > 100 µM (inactive) | > 100 µM (inactive) | > 100 µM (inactive) | > 100 µM (inactive) | > 100 µM (inactive)
